Experimental data taken from ChEMBL document CHEMBL3046957, “Synthesis of new oxadiazole derivatives as anti-inflammatory, analgesic, and antimicrobial agents” (2013).

Experiments:
Type in all cases: functional
Aspergillus niger [1] = test: Antifungal activity against Aspergillus niger assessed as growth inhibition at 100 ug/mL after 24 hr by cup-plate method; details: read-out: DIZ
Aspergillus niger [2] = test: Antifungal activity against Aspergillus niger assessed as growth inhibition at 50 ug/mL after 24 hr by cup-plate method; details: read-out: DIZ
Candida albicans [3] = test: Antifungal activity against Candida albicans assessed as growth inhibition at 100 ug/mL after 24 hr by cup-plate method; details: read-out: DIZ
Candida albicans [4] = test: Antifungal activity against Candida albicans assessed as growth inhibition at 50 ug/mL after 24 hr by cup-plate method; details: read-out: DIZ
Pseudomonas aeruginosa [5] = test: Antibacterial activity against Pseudomonas aeruginosa assessed as growth inhibition at 100 ug/mL after 24 to 48 hr by cup-plate method; details: read-out: DIZ
Pseudomonas aeruginosa [6] = test: Antibacterial activity against Pseudomonas aeruginosa assessed as growth inhibition at 50 ug/mL after 24 to 48 hr by cup-plate method; details: read-out: DIZ
Escherichia coli [7] = test: Antibacterial activity against Escherichia coli assessed as growth inhibition at 100 ug/mL after 24 to 48 hr by cup-plate method; details: read-out: DIZ
Bacillus subtilis [8] = test: Antibacterial activity against Bacillus subtilis assessed as growth inhibition at 100 ug/mL after 24 to 48 hr by cup-plate method; details: read-out: DIZ
Escherichia coli [9] = test: Antibacterial activity against Escherichia coli assessed as growth inhibition at 50 ug/mL after 24 to 48 hr by cup-plate method; details: read-out: DIZ
Bacillus subtilis [10] = test: Antibacterial activity against Bacillus subtilis assessed as growth inhibition at 50 ug/mL after 24 to 48 hr by cup-plate method; details: read-out: DIZ
Staphylococcus aureus [11] = test: Antibacterial activity against Staphylococcus aureus assessed as growth inhibition at 100 ug/mL after 24 to 48 hr by cup-plate method; details: read-out: DIZ
Staphylococcus aureus [12] = test: Antibacterial activity against Staphylococcus aureus assessed as growth inhibition at 50 ug/mL after 24 to 48 hr by cup-plate method; details: read-out: DIZ
Mus musculus [13] = test: Analgesic activity in Swiss albino Mus musculus (mouse) assessed as latency time of heat-induced paw licking/jumping behaviour at 10 mg/kg after 4 hr by Eddy's hot plate method (reference value: 4.57 +/- 0.11 secs)
Mus musculus [14] = test: Analgesic activity in Swiss albino Mus musculus (mouse) assessed as latency time of heat-induced paw licking/jumping behaviour at 10 mg/kg after 2 hr by Eddy's hot plate method (reference value: 4.86 +/- 0.18 secs)
Mus musculus [15] = test: Analgesic activity in Swiss albino Mus musculus (mouse) assessed as latency time of heat-induced paw licking/jumping behaviour at 10 mg/kg after 1 hr by Eddy's hot plate method (reference value: 4.74 +/- 0.21 secs)
Mus musculus [16] = test: Analgesic activity in Swiss albino Mus musculus (mouse) assessed as latency time of heat-induced paw licking/jumping behaviour at 10 mg/kg after 0.5 hr by Eddy's hot plate method (reference value: 4.17 +/- 0.04 secs)
Rattus norvegicus [17] = test: Anti-inflammatory activity in Wistar albino Rattus norvegicus (rat) assessed as inhibition of carrageenan-induced paw edema at 10 mg/kg, po administered 30 min prior to carrageenan challenge measured after 3 hr by plethysmometric analysis relative to untreated control
Rattus norvegicus [18] = test: Anti-inflammatory activity in Wistar albino Rattus norvegicus (rat) assessed as inhibition of carrageenan-induced paw edema at 10 mg/kg, po administered 30 min prior to carrageenan challenge measured after 2 hr by plethysmometric analysis relative to untreated control
Rattus norvegicus [19] = test: Anti-inflammatory activity in Wistar albino Rattus norvegicus (rat) assessed as inhibition of carrageenan-induced paw edema at 10 mg/kg, po administered 30 min prior to carrageenan challenge measured after 1.5 hr by plethysmometric analysis relative to untreated control
Rattus norvegicus [20] = test: Anti-inflammatory activity in Wistar albino Rattus norvegicus (rat) assessed as inhibition of carrageenan-induced paw edema at 10 mg/kg, po administered 30 min prior to carrageenan challenge measured after 1 hr by plethysmometric analysis relative to untreated control
Rattus norvegicus [21] = test: Anti-inflammatory activity in Wistar albino Rattus norvegicus (rat) assessed as inhibition of carrageenan-induced paw edema at 10 mg/kg, po administered 30 min prior to carrageenan challenge measured after 0.5 hr by plethysmometric analysis relative to untreated control

Row | SMILES | zone of inhibition at 100 µg/mL (Aspergillus niger [1]) | zone of inhibition at 50 µg/mL (Aspergillus niger [2]) | zone of inhibition at 100 µg/mL (Candida albicans [3]) | zone of inhibition at 50 µg/mL (Candida albicans [4]) | zone of inhibition at 100 µg/mL (Pseudomonas aeruginosa [5]) | zone of inhibition at 50 µg/mL (Pseudomonas aeruginosa [6]) | zone of inhibition at 100 µg/mL (Escherichia coli [7]) | zone of inhibition at 100 µg/mL (Bacillus subtilis [8]) | zone of inhibition at 50 µg/mL (Escherichia coli [9]) | zone of inhibition at 50 µg/mL (Bacillus subtilis [10]) | zone of inhibition at 100 µg/mL (Staphylococcus aureus [11]) | Time (Mus musculus [13]) | Time (Mus musculus [14]) | Time (Mus musculus [15]) | Time (Mus musculus [16]) | inhibition in vivo at 10 mg/kg (Rattus norvegicus [17]) | inhibition in vivo at 10 mg/kg (Rattus norvegicus [18]) | inhibition in vivo at 10 mg/kg (Rattus norvegicus [19]) | inhibition in vivo at 10 mg/kg (Rattus norvegicus [20]) | inhibition in vivo at 10 mg/kg (Rattus norvegicus [21]) | also measured
1 | COc1ccc(F)cc1-c1cccc(-c2nn(CCCC#N)c(=O)o2)c1 | 14 mm | 12 mm | 16 mm | 10 mm | 14 mm | 11 mm | 16 mm | 14 mm | 11 mm | 13 mm | 14 mm | 7.08 s | 7.11 s | 5.64 s | 5.71 s | 85% | 71% | 59% | 44% | 29% | zone of inhibition at 50 µg/mL (Staphylococcus aureus [12]): 10 mm
2 | COc1ccc(F)cc1-c1cccc(-c2nn(CCCN3C(=O)c4ccccc4C3=O)c(=O)o2)c1 | 10 mm | 7 mm | 10 mm | 6 mm | 19 mm | 13 mm | 18 mm | 18 mm | 15 mm | 13 mm | 16 mm | 4.01 s | 4.01 s | 4.11 s | 4.75 s | 64% | 61% | 49% | 30% | 19% | zone of inhibition at 50 µg/mL (Staphylococcus aureus [12]): 10 mm
3 | COc1ccc(F)cc1-c1cccc(-c2nn(CCOC3CCCCO3)c(=O)o2)c1 (stereo not given) | 11 mm | 8 mm | 9 mm | 9 mm | 21 mm | 18 mm | 16 mm | 15 mm | 9 mm | 11 mm | 14 mm | 4.21 s | 4.58 s | 4.21 s | 4.81 s | 65% | 56% | 44% | 32% | 16% | zone of inhibition at 50 µg/mL (Staphylococcus aureus [12]): 9 mm
4 | COc1ccc(F)cc1-c1cccc(-c2nn(CCCN)c(=O)o2)c1 | 12 mm | 10 mm | 12 mm | 5 mm | 21 mm | 17 mm | 16 mm | 19 mm | 15 mm | 12 mm | 17 mm | 5.49 s | 6.84 s | 4.62 s | 4.93 s | 77% | 66% | 55% | 43% | 29% | zone of inhibition at 50 µg/mL (Staphylococcus aureus [12]): 12 mm
5 | COc1ccc(F)cc1-c1cccc(-c2nn(CCO)c(=O)o2)c1 | 10 mm | 9 mm | 8 mm | 4 mm | 20 mm | 18 mm | 19 mm | 18 mm | 18 mm | 13 mm | 16 mm | 5.59 s | 6.88 s | 4.36 s | 4.96 s | 75% | 69% | 53% | 41% | 28% | zone of inhibition at 50 µg/mL (Staphylococcus aureus [12]): 14 mm
6 | COc1ccc(F)cc1-c1cccc(-c2nn(CCOS(=O)(=O)c3ccc(Cl)c(Cl)c3)c(=O)o2)c1 | 10 mm | 7 mm | 9 mm | 3 mm | 15 mm | 12 mm | 19 mm | 17 mm | 12 mm | 10 mm | 15 mm | 5.55 s | 5.72 s | 4.48 s | 4.95 s | 66% | 64% | 51% | 39% | 25% | zone of inhibition at 50 µg/mL (Staphylococcus aureus [12]): 12 mm
7 | COc1ccc(F)cc1-c1cccc(-c2nn(CCOS(=O)(=O)c3ccc(F)cc3)c(=O)o2)c1 | 9 mm | 5 mm | 6 mm | 5 mm | 15 mm | 10 mm | 16 mm | 20 mm | 12 mm | 15 mm | 21 mm | 6.01 s | 6.17 s | 5.01 s | 4.91 s | 67% | 63% | 50% | 40% | 24% | zone of inhibition at 50 µg/mL (Staphylococcus aureus [12]): 15 mm
8 | COc1ccc(F)cc1-c1cccc(-c2nn(CCOS(=O)(=O)c3ccc(F)c(Cl)c3)c(=O)o2)c1 | 11 mm | 9 mm | 7 mm | 8 mm | 18 mm | 17 mm | 19 mm | 22 mm | 13 mm | 20 mm | 20 mm | 5.47 s | 5.87 s | 4.69 s | 4.62 s | 65% | 62% | 55% | 42% | 23% | zone of inhibition at 50 µg/mL (Staphylococcus aureus [12]): 13 mm
9 | O=C(O)Cc1ccccc1Nc1c(Cl)cccc1Cl [DICLOFENAC SODIUM] |  |  |  |  |  |  |  |  |  |  |  |  |  |  |  | 90% | 77% | 65% | 49% | 35% | 
10 | COC1=CC(=O)C[C@@H](C)[C@]12Oc1c(Cl)c(OC)cc(OC)c1C2=O [GRISEOFULVIN] | 37 mm | 22 mm | 35 mm | 20 mm |  |  |  |  |  |  |  |  |  |  |  |  |  |  |  |  | 
11 | CC(C)=CCN1CCC2(C)c3cc(O)ccc3CC1C2C (stereo not given) [PENTAZOCINE] |  |  |  |  |  |  |  |  |  |  |  | 7.85 s | 8.06 s | 5.93 s | 5.58 s |  |  |  |  |  | 
12 | CN[C@@H]1[C@H](O[C@H]2[C@H](O[C@H]3[C@H](O)[C@@H](O)[C@H](N=C(N)N)[C@@H](O)[C@@H]3N=C(N)N)O[C@@H](C)[C@]2(O)C=O)O[C@@H](CO)[C@H](O)[C@H]1O [STREPTOMYCIN] |  |  |  |  | 25 mm | 21 mm | 25 mm |  | 21 mm |  |  |  |  |  |  |  |  |  |  |  | 
